Assay results taken from US8633242B2, “Benzylidene indanones and processes for preparation and use thereof” (Council of Scientific and Industrial Research, priority 2011, dated 2014).
Entries after “also recorded” stand apart in the source; their conditions may differ.

Key:
[1] = test system: HCT (Colon); assay: Sulphorhodamine B cytotoxicity assay, HCT; assay type: cell-based, human
Method: The benzylidene analogues were evaluated by Sulphorhodamine B Assay as per reported method [Skehan et al., J. Natl. Cancer Inst. 1990, 82, 1107]. The human cancer cell lines procured from National Cancer institute, Frederick, U.S.A. were used in present study. Cells were grown in tissue culture flasks in complete growth medium (RPMI-1640 medium with 2 mM glutamine, pH 7.4 supplemented with 10% fetal bovine serum, 100 μg/ml streptomycin and 100 units/ml penicillin) in a carbon dioxide incubator (37° C., 5% CO2, 90% RH). The cells at subconfluent stage were harvested from the flask by treatment with trypsin (0.05% in PBS (pH 7.4) containing 0.02% EDTA). Cells with viability of more than 98%, as determined by trypan blue exclusion, were used for determination of cytotoxicity. The cell suspension required concentration of cells was prepared in complete growth medium. Stock solution of 2×10^−2 M of compounds were prepared in DMSO and further dilution was carried out complete growth medium containing 50 μg/ml of gentamycin to obtained working test solution of required concentration. In vitro cytotoxicity against various human cancer cell lines was determined using 96-well cell culture plates. The 100 μl of cell suspension was added to each well of the 96-well cell culture plates. The cells were allowed to grow in CO2 incubator (37° C., 5% CO2, 90% RH) for 24 hours. The test materials in complete growth medium (100 μl) were added after 24 hours incubation to the wells containing cell suspension. The plates were further incubated for 48 hours (37° C. in an atmosphere of 5% CO2 and 90% relative humidity) in a carbon dioxide incubator after addition of test material and then the cell growth was stopped by gently layering trichloroacetic acid (50% TCA, 50 μl) on top of the medium in all the wells. The plates were incubated at 4° C. for one hour to fix the cells attached to the bottom of the wells. The liquid of all the wells was gently pipetted out and discarded. The plates were washed five times with distilled water to remove TCA, growth medium low molecular weight metabolites, serum proteins etc. and air-dried. Cell growth was measured by staining with sulforhodamine B dye. The adsorbed dye was dissolved in Tris-HCl Buffer (100 μl/well, 0.01M, pH 10.4) and plates were gently stirred for 10 minutes on a mechanical stirrer. The optical density (OD) was recorded on ELISA reader at 540 nm. 5-Fluorouracil, Paclitaxel (Taxol), Mitomycin-c and Adriamycin were used as positive controls.

[2] = test system: tubulin protein; assay: In-vitro tubulin polymerisation inhibition assay; assay type: biochemical
Method: The tubulin polymerization experiment was performed using ‘assay kit’ (Cytoskeleton USA) following manufacturer's protocol based on the procedure described by of Shelanski et al. (1973) and Lee et al. (1977). Briefly, tubulin protein (3 mg/mL) in tubulin polymerization buffer (80 mM PIPES, pH 6.9, 2 mM MgCl2, 0.5 mM EGTA, 1 mM GTP and 15% glycerol) was placed in pre-warmed 96-well microtiter plates at 37° C. in the presence of test compounds with variable concentrations. All samples were mixed well and polymerization was monitored kinetically at 340 nm every min for 1 h using a Spectramax plate reader. Podophyllotoxin and etoposide were used as positive controls and DMSO as negative control. The IC50 value was determined from dose-dependent analysis and is defined as the concentration that inhibits the rate of polymerization by 50%.
Podophyllotoxin and etoposide, standard tubulin polymerisation inhibitors were used as positive controls.

COc1cc(C2/C(=C/c3ccc4c(c3)OCO4)C(=O)c3cc(OC)c(OC)c(OC)c32)cc(OC)c1OC (racemic) [Compound 8, 2-(3,4-Methylenedioxybenzylidine), 3-(3,4,5-trimethoxyphenyl), 4,5,6-trimethoxyindanone]
activity against HCT (Colon) cancer cell line, in words [1]: better activity | IC50 ([1]; Homo sapiens, SRB assay, 48 hours incubation, read-out: Human cancer cell lines IC50, HCT (Colon)): 100 nM | inhibition of tubulin polymerisation, in words [2]: tubulin polymerisation inhibition; also recorded: strong inhibition | IC50 ([2]; read-out: Tubulin polymerisation inhibition IC50, tubulin 3 mg/mL, 37° C., 340 nm, 1 h): 630 nM
